In patent US3972882A, “Sym.-triazine carbamates” (Toyama Chemical Co., Ltd., priority 1973, dated 1976):
Like-named read-outs stand apart in the source and are kept apart here.

What was measured:
[1] = tested on: carregeenin oedema; assay: Anti-carregeenin oedema activity (Winter method); type: in vivo, male rats
Source text: Anti-carregeenin oedema activity [According to the Winter method [Proc. Soc. exp. Biol. Med., 111 544 (1962)], a test compound suspended in the solution including 0.3 % of Tween-80 (a trade name of Atlas Powder Co., U.S.A.) was orally administered to a group of 5 male rats weighing 120 to 140 g.]
*1 Maximum oedema inhibition.
*2 Average oedema inhibition from 2 hrs to 5 hrs after the administration

[2] = tested on: acetic acid-induced writhing; assay: Analgesic activity by the acetic acid-induced writhing test (K. Takagi et al. method); type: in vivo, ddY male mice
Source text: Analgesic activity by the acetic acid-induced writhing test [According to the K. Takagi et al. method [Journal of the Pharmaceutical Society of Japan, 78 553 (1958)], a test compound suspended in the solution including 0.5 % of Tween-80 was orally administered to a group of 8 ddY male mice weighing 20 to 24 g.]

[3] = toxicity test (LD50); conditions: mouse, in vivo, mice
Source text: Therefore, the sym.-triazines of this invention are useful as an anti-inflammatory agent and analgesics.

[4] = Mus musculus, po, read-out: ED50

| Compound | Inhibition of oedema, Peak (maximum oedema inhibition) ([1]; 70 mg/kg p.o.) [%] | Inhibition of oedema, time of Peak ([1]; 70 mg/kg p.o.) [h] | Inhibition of oedema, Mean (average oedema inhibition from 2 hrs to 5 hrs after the administration) ([1]; 70 mg/kg p.o.) [%] | Inhibition of oedema, Peak (maximum oedema inhibition) ([1]; 200 mg/kg p.o.) [%] | Inhibition of oedema, time of Peak ([1]; 200 mg/kg p.o.) [h] | Inhibition of oedema, Mean (average oedema inhibition from 2 hrs to 5 hrs after the administration) ([1]; 200 mg/kg p.o.) [%] | Inhibition of oedema, Peak (maximum oedema inhibition) ([1]; 500 mg/kg p.o.) [%] | Inhibition of oedema, time of Peak ([1]; 500 mg/kg p.o.) [h] | Inhibition of oedema, Mean (average oedema inhibition from 2 hrs to 5 hrs after the administration) ([1]; 500 mg/kg p.o.) [%] | Inhibition (writhing) ([2]; 100 mg/kg p.o.) [%] | ED50 [2, 4] [mg/kg] | Inhibition (writhing) ([2]; 33.3 mg/kg p.o.) [%] | other results |
| --- | --- | --- | --- | --- | --- | --- | --- | --- | --- | --- | --- | --- | --- |
| COC(=O)Nc1nc(OC)nc(OC)n1 [No. 1, methyl 2,4-dimethoxy-sym.-triazinylcarbamate] | 51.0 | 2 | 44.6 | 64.0 | 2 | 49.5 | 61.4 | 2 | 52.8 | 16.3 | > 300 |  | Inhibition (writhing) ([2]; 300 mg/kg p.o.): 34.7% |
| COC(=S)Nc1nc(OC)nc(OC)n1 [No. 3, methyl 2,4-dimethoxy-sym.-triazinylthioncarbamate] | 37.2 | 2 | 24.7 | 68.8 | 2 | 46.7 | 78.3 | 2 | 61.0 | 77.2 | 8 | 69.4 | Inhibition (writhing) ([2]; 3.7 mg/kg p.o.): 11.9%; Inhibition (writhing) ([2]; 11.1 mg/kg p.o.): 67.9%; LD50 ([3]; ip, read-out: LD50 i.p.): 500 mg/kg; LD50 ([3]; po, read-out: LD50 p.o.): 1050 mg/kg |
| CCOC(=S)Nc1nc(OC)nc(OC)n1 [compound 4] | 23.9 | 2 | 21.8 | 45.9 | 2 | 35.4 | 64.5 | 2 | 50.6 | 96.9 | 6.6 | 94.4 | Inhibition (writhing) ([2]; 3.7 mg/kg p.o.): 7.6%; Inhibition (writhing) ([2]; 11.1 mg/kg p.o.): 89.4%; LD50 ([3]; ip, read-out: LD50 i.p.): 490 mg/kg; LD50 ([3]; po, read-out: LD50 p.o.): 1020 mg/kg |
| CCOC(=S)Nc1nc(O)nc(O)n1 [compound 10] |  |  |  |  |  |  | 13.0 | 2 |  |  |  |  |  |
| ethyl 2,4-dihydroxy-sym.-triazinylthioncarbamate [No. 10] |  |  |  |  |  |  | 17.5 | 2 |  |  |  |  |  |
| ethyl 2,4-dimethoxy-sym.-triazinyldithiocarbamate [No. 7] |  |  |  |  |  |  | 38.0 | 2 | 18.1 | 68.4 |  | 16.5 | ED50 ([2]; p.o.): 67.5 mg/kg |
| ethyl 2,4-dimethoxy-sym.-triazinylthiolcarbamate [No. 11] |  |  |  |  |  |  |  |  |  | 2.9 |  |  | Inhibition (writhing) ([2]; 300 mg/kg p.o.): 50.3%; ED50 ([2]; p.o.): 300 mg/kg |
| methyl 2,4-diethoxy-sym.-triazinylthioncarbamate [No. 8] |  |  |  |  |  |  | 16.3 | 3 |  |  |  |  |  |
| methyl 2,4-diphenoxy-sym.-triazinylthioncarbamate [No. 9] |  |  |  | 27.1 | 5 | 17.6 |  | 2 |  |  |  |  | Inhibition of oedema, Mean (average oedema inhibition from 2 hrs to 5 hrs after the administration) ([1]; 500 mg/kg p.o., listed as 7): 27.6%; Inhibition of oedema, Mean (average oedema inhibition from 2 hrs to 5 hrs after the administration) ([1]; 500 mg/kg p.o., listed as 8): 23.5%; Inhibition of oedema, Peak (maximum oedema inhibition) ([1]; 500 mg/kg p.o., listed as 7): 37.4%; Inhibition of oedema, Peak (maximum oedema inhibition) ([1]; 500 mg/kg p.o., listed as 8): 32.2% |
